Assay results from patent publication US9980943B2, “Methods of treating muscular dystrophy” (BOARD OF REGENTS OF THE NEVADA SYSTEM OF HIGHER EDUCATION, …, priority 2013, dated 2018).

Legend:
Assay type in all cases: cell-based, mouse
[1] = tested on: α7 integrin (LacZ reporter in α7βgal+/− myoblasts); test: Myoblast α7+/LacZ integrin FDG assay (Burkin assay in myoblasts, 96-well); settings: α7+/LacZ myoblasts, 96-well
[2] = tested on: α7 integrin (LacZ reporter in α7+/LacZ myotubes); test: Myotube α7 integrin FDG assay (Burkin assay in myotubes, 96-well); settings: myotubes
[3] = tested on: β-galactosidase in CMV-LacZ C2C12 myoblasts; test: CMV-LacZ secondary screen in C2C12 myoblasts (β-Gal stabilizing assay); settings: CMV-LacZ C2C12 myoblasts
Method in brief: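 β-Gal level was the read-out, measured in a clonal C2C12 line expressing LacZ from a CMV promoter. Dose-response curves used six concentrations, 0.5 μM up to 40 μM, with duplicate points.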

[4] = tested on: β-galactosidase in CMV-LacZ C2C12 myotubes; test: CMV-LacZ secondary screen in C2C12 myotubes (β-Gal stabilizing assay); settings: C2C12 CMV-LacZ myotubes, fold relative to DMSO
Method in brief: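 A secondary screen identifies compounds that stabilize β-gal independently of the native promoter, using CMV-LacZ C2C12 cells. Curves span 0.5–40 μM at six levels, in duplicate.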

Structure (SMILES) | Burkin Assay in Myoblasts, signal relative to DMSO ([1]; 0.5 uM) | Burkin Assay in Myoblasts, signal relative to DMSO ([1]; 1 uM) | Burkin Assay in Myoblasts, signal relative to DMSO ([1]; 5 uM) | Burkin Assay in Myoblasts, signal relative to DMSO ([1]; 10 uM) | Burkin Assay in Myoblasts, signal relative to DMSO ([1]; 20 uM) | Burkin Assay in Myoblasts, signal relative to DMSO ([1]; 40 uM) | Burkin Assay in Myotubes, α7 integrin LacZ reporter signal relative to DMSO ([2]; 0.5 uM) | Burkin Assay in Myotubes, α7 integrin LacZ reporter signal relative to DMSO ([2]; 1 uM) | Burkin Assay in Myotubes, α7 integrin LacZ reporter signal relative to DMSO ([2]; 5 uM) | Burkin Assay in Myotubes, α7 integrin LacZ reporter signal relative to DMSO ([2]; 10 uM) | Burkin Assay in Myotubes, α7 integrin LacZ reporter signal relative to DMSO ([2]; 20 uM) | Burkin Assay in Myotubes, α7 integrin LacZ reporter signal relative to DMSO ([2]; 40 uM) | CMV-LACZ in Myoblasts (β-galactosidase activity relative to DMSO) ([3]; 0.5 uM) | CMV-LACZ in Myoblasts (β-galactosidase activity relative to DMSO) ([3]; 1 uM) | CMV-LACZ in Myoblasts (β-galactosidase activity relative to DMSO) ([3]; 5 uM) | CMV-LACZ in Myoblasts (β-galactosidase activity relative to DMSO) ([3]; 10 uM) | CMV-LACZ in Myoblasts (β-galactosidase activity relative to DMSO) ([3]; 20 uM) | CMV-LACZ in Myoblasts (β-galactosidase activity relative to DMSO) ([3]; 40 uM) | CMV-LACZ in Myotubes, signal relative to DMSO ([4]; 0.5 uM) | CMV-LACZ in Myotubes, signal relative to DMSO ([4]; 1 uM) | also measured
C#CC1(O)CCC2C3CCC4=C/C(=N/OCC(=O)NCC(=O)NC(C(=O)O)C(C)C)CC[C@]4(C)C3CC[C@@]21C (stereo partly drawn) [MLS001163859-01] | 0.9786 | 1.09 | 1.055 | 1.024 | 0.9208 | 0.928 | 1.132 | 1.281 | 1.385 | 1.249 | 1.118 | 1.058 | 1.1113 | 1.1684 | 1.2009 | 1.1812 | 0.7593 | 0.8104 | 0.8756 | 1.1326 | CMV-LACZ in Myotubes, signal relative to DMSO ([4]; 5 uM): 1.0856; CMV-LACZ in Myotubes, signal relative to DMSO ([4]; 10 uM): 1.1727; CMV-LACZ in Myotubes, signal relative to DMSO ([4]; 20 uM): 1.0965; CMV-LACZ in Myotubes, signal relative to DMSO ([4]; 40 uM): 1.2482
CCc1c(C)sc(NC(=O)c2ccco2)c1C#N [MLS001240181-01] | 1.082 | 1.081 | 1.4585 | 1.074 | 1.153 | 1.198 | 1.174 | 1.214 | 1.643 | 0.9683 | 0.8871 | 0.7905 | 0.9550 | 1.0441 | 0.8408 | 1.1645 | 1.0367 | 0.8907 | 0.9519 | 1.0511 | CMV-LACZ in Myotubes, signal relative to DMSO ([4]; 5 uM): 1.0895; CMV-LACZ in Myotubes, signal relative to DMSO ([4]; 10 uM): 0.9955; CMV-LACZ in Myotubes, signal relative to DMSO ([4]; 20 uM): 1.0976; CMV-LACZ in Myotubes, signal relative to DMSO ([4]; 40 uM): 1.1376
Cc1ccc(NS(=O)(=O)c2ccc(-c3ccc(=O)[nH]n3)o2)c(C)c1 [MLS001116535-01] | 1.092 | 1.111 | 0.998 | 0.9386 | 1.239 | 1.267 | 0.95 | 1.003 | 0.8929 | 0.8553 | 0.8993 | 0.8366 | 1.0167 | 1.1779 | 1.0944 | 1.0580 | 1.1815 | 1.1263 | 1.2552 | 0.8771 | CMV-LACZ in Myotubes, signal relative to DMSO ([4]; 5 uM): 1.0648; CMV-LACZ in Myotubes, signal relative to DMSO ([4]; 10 uM): 1.2856; CMV-LACZ in Myotubes, signal relative to DMSO ([4]; 20 uM): 0.9800; CMV-LACZ in Myotubes, signal relative to DMSO ([4]; 40 uM): 1.0011
